Laboratory results reported in article PMC6270921, “Study on the Cytotoxic Activity of Drimane Sesquiterpenes and Nordrimane Compounds against Cancer Cell Lines” (Molecules, 2014).

Tests used:
[1] = system: panel of cancer cell lines; test: Cytotoxicity against a panel of cancer cell lines (summary); type: cell-based; conditions: Homo sapiens; summary statement of the conclusions
Method: (§1) The cytotoxicity of compounds 1–12 was evaluated in vitro against different cancer cell lines: MCF-7 breast cancer, DU-145 and PC-3 human prostate cancer, and one non-tumor cell line, human colon epithelial cells CCD 841 CoN (CoN). […] Four serial dilutions (from 12.5 to 100 μM) for each sample were evaluated in triplicate.
(§2) The sulforhodamine B assay was used according to the method of Skehan et al.. Briefly, the cells were set up at 3 × 10^3 cells per well of a 96 200 μL well, flat-bottomed, microplate. Cells were incubated at 37 °C in a humidified 5% CO2/95% air mixture and treated with the compounds at different concentrations for 72 h. At the end of drug exposure, cells were fixed with 50% trichloroacetic acid at 4 °C. After washing with water, cells were stained with 0.1% sulforhodamine B (Sigma-Aldrich, St. Louis, MO, USA), dissolved in 1% acetic acid (50 μL/well) for 30 min, and subsequently washed with 1% acetic acid to remove unbound stain. Protein-bound stain was solubilized with 100 μL of 10 mM unbuffered Tris base, and the cell density was determined using a […] plate reader (wavelength 540 nm). Values shown are the mean ± SD of three independent experiments in triplicate. The software used to calculate the IC50 values was GraphPad (GraphPad Software, San Diego, CA, USA).

PC-3 cells [2] = test: Morphological changes, phase contrast microscope; type: cell-based, human; conditions: PC-3, 50 μM compound for 24 h
Method: (§3) First, the appearance of morphological changes in the cells treated with 50 μM compound for 24 h was analyzed.

CoN cells [3] = test: Morphological changes, phase contrast microscope; type: cell-based, human; conditions: 50 μM compound for 24 h
Method: as §3

MCF-7 cells [4] = test: Morphological changes, phase contrast microscope; type: cell-based, human; conditions: MCF-7, 50 μM compound for 24 h
Method: as §3

[5] = Cell viability, sulforhodamine B assay; type: cell-based; conditions: human, CCD 841 CoN colon epithelial cells (non-tumoral cell line), 72 h exposure, dilutions 12.5 to 100 μM, non-tumor cell line, read-out: Cytotoxicity IC50, CoN
Method: as §1
(§4) The experimental cell cultures were obtained from the American Type Culture Collection (Rockville, MD, USA). MCF-7 cells (breast cancer cell line), PC-3 and DU-145 (prostate cancer cell lines), and human colon epithelial cells CCD 841 CoN (non-tumoral cell line) were grown in Dulbecco’s modified Eagle’s medium (DMEM) containing 10% FCS, 100 U/mL penicillin, 100 μg/mL streptomycin, and 1 mM glutamine. Cells were seeded into 96 well microtiter plates in 100 μL at a plating density of 5 × 10^3 cells/well. After 24 h incubation at 37 °C under a humidified 5% CO2 atmosphere to allow cell attachment, the cells were treated with different concentrations of drugs and incubated for 72 h under the same conditions. Stock solutions of compounds were prepared in ethanol and the final concentration of this solvent was kept constant at 1%. Control cultures received 1% ethanol alone.
as §2

[6] = system: PC-3 prostate cancer cell line; test: Cell viability, sulforhodamine B assay; type: cell-based; conditions: Homo sapiens, 72 h exposure, dilutions 12.5 to 100 μM, read-out: Cytotoxicity IC50, PC-3
Method: as §1, §4, §2

[7] = system: MCF-7 breast cancer cell line; test: Cell viability, sulforhodamine B assay; type: cell-based; conditions: Homo sapiens, MCF7, 72 h exposure, dilutions 12.5 to 100 μM, read-out: Cytotoxicity IC50, MCF-7
Method: as §1, §4, §2

[8] = system: DU-145 prostate cancer cell line; test: Cell viability, sulforhodamine B assay; type: cell-based; conditions: Homo sapiens, 72 h exposure, dilutions 12.5 to 100 μM, read-out: Cytotoxicity IC50, DU145
Method: as §1, §4, §2

PC-3 cells [9] = test: Morphological assessment of cell apoptosis, Hoechst 33342 staining; type: cell-based, human; conditions: PC-3, 24 h exposure, fluorescence microscope
Method: (§5) Nuclear changes in PC-3, MCF-7 and CoN cells were observed under a fluorescence microscope (200×, Figure 4).
(§6) Briefly, on 24-well chamber slides, 1 × 10^4 cells/mL were cultured and exposed to compounds for 24 h. The control group was also exposed to 1% ethanol. The cells were washed twice with phosphate buffer solution, fixed with 3.7% formaldehyde, and washed again with phosphate buffer solution. Following the addition of 1 μM Hoechst 33342 (Sigma-Aldrich, Santiago, Chile), they were reacted in a dark room at room temperature for 30 min. After washing, they were examined under an immunofluorescence microscope (IX 81 model inverted microscope, Olympus, Santiago, Chile).

CoN cells [10] = test: as above; type: cell-based, human; conditions: 24 h exposure, fluorescence microscope
Method: as §5, §6

MCF-7 cells [11] = test: as above; type: cell-based, human; conditions: MCF-7, 24 h exposure, fluorescence microscope
Method: as §5, §6

PC-3 cells [12] = test: Mitochondrial membrane permeability, rhodamine 123 flow cytometry; type: cell-based, human; conditions: control treated cells assigned 100%
Text: (§7) Mitochondria play a crucial role in the apoptotic cascade by serving as a convergent center of apoptotic signals originating from both the extrinsic and intrinsic pathways. Changes induced in the mitochondrial membrane potential (MMP) have been reported previously to represent a determinant in the execution of cell death. As polygodial has been described as an inhibitor of mitochondrial ATPase and also as nonionic surfactant. This effect may be determinant in cell death, we has analyzed the effect of compounds 1, 8 and 12 on the mitochondrial membrane potential using flow cytometry with rhodamine 123 stain [24]. […] Similar differences were observed after treatments with compounds 1 and 8 at 100 μM.
(§8) Rhodamine 123, a cationic, voltage-sensitive probe that reversibly accumulates in mitochondria, was used to detect changes in transmembrane mitochondrial membrane potentials. Cells were labelled with 1 μM rhodamine 123 at 37 °C in cell medium for 60 min before terminating the experiment. Cells were detached from the plate, after washing with ice cold PBS, and the samples were analyzed by flow cytometry. Data are expressed in percentage of cells with rhodamine 123 [24].

CoN cells [13] = test: as above; type: cell-based, human; conditions: control treated cells assigned 100%
Text: as §7, §8

MCF-7 cells [14] = test: as above; type: cell-based, human; conditions: control treated cells assigned 100%
Text: as §7, §8

caspase-3 in CoN cells = test: Caspase 3 activity assay (colorimetric, DEVD-pNA); type: cell-based, human; conditions: compound 50 μM, control 1% ethanol
Text: (§9) Depletion of mitochondrial membrane potential leads to the release of apoptogenic factors, such as cytochrome c in the apoptotic cascade, and activation of caspases. Then we investigated the effects of our compounds on caspase activity. We focused on caspase-3, which is a main executor of apoptosis playing a central role in its biological processing. We analyzed the effect of treatment with the compound 1, 8 and 12 on caspase-3 activation in normal and cancer cells. […] Compound 1 increased the activity of caspase-3 by 3.4 ± 0.1, 1.4 ± 0.1 and 2.8 ± 0.1 times versus control cells in MCF-7 (black), CoN (white) and PC-3 (gray) cells, respectively. Compound 8 increased the activity of caspase 3 by 2.4 ± 0.1, 1.3 ± 0.2 and 2.7 ± 0.1 times versus control cells in MCF-7 (black), CoN (white) and PC-3 (gray) cells, respectively.
(§10) Caspase activity was measured using a colorimetric assay. Briefly, the cells exposed to compounds were collected by centrifugation at 1000 rpm and lysed with lysis buffer (1% Triton X-100, 0.32 M sucrose, 5 mM EDTA, 10 mM Tris–HCl, pH 8.0, 2 mM dithiothreitol, 1 mM PMSF, […] aprotinin, 1 mg/mL leupeptin). Thereafter, the lysates were transferred to wells in a 96-well microplate and were incubated with DEVD-pNA (final concentration 200 μM) specific for caspase-3/7, at 37 °C for 1 h. The intensity of the developed color was read at 405 nm in a microplate reader (SpectraMax, Winooski, VT, USA). The results are expressed as percentages of the control level.

caspase-3 in PC-3 cells = test: Caspase 3 activity assay (colorimetric, DEVD-pNA); type: cell-based, human; conditions: PC-3, compound 50 μM; control 1% ethanol
Text: as §9, §10

caspase-3 in MCF-7 cells = test: Caspase 3 activity assay (colorimetric, DEVD-pNA); type: cell-based, human; conditions: MCF-7, compound 50 μM; control 1% ethanol
Text: as §9, §10

CC1(C)CCC[C@]2(C)[C@@H](C3OCCO3)C(C=O)=CC[C@@H]12 [Compound 8]
IC50 [1]: < 200 µM | morphological changes of cells (PC-3 cells [2]): severely distorted | morphological changes of cells (CoN cells [3]): severely distorted | morphological changes of cells (MCF-7 cells [4]): severely distorted | IC50 at 72 h [5]: > 200 µM | IC50 [6]: 65.4 ± 5.5 µM | IC50 [7]: 97.1 ± 7.2 µM | IC50 [8]: 70.6 ± 5.9 µM | nuclear changes after Hoechst 33342 staining (PC-3 cells [9]): chromatin condensation and karyopyknosis | nuclear changes after Hoechst 33342 staining (CoN cells [10]): chromatin condensation and karyopyknosis | nuclear changes after Hoechst 33342 staining (MCF-7 cells [11]): chromatin condensation and karyopyknosis | percentage of rhodamine 123 stained cells (PC-3 cells [12]; PC-3, compound 50 µM, listed as Comp. 8): 136.2 ± 18.5% | percentage of rhodamine 123 stained cells (PC-3 cells [12]; PC-3, compound 100 µM): 92.8 ± 10.4% | percentage of rhodamine 123 stained cells (CoN cells [13]; compound 50 µM): 96.0% ± 7.6% | percentage of rhodamine 123 stained cells (CoN cells [13]; compound 50 µM, listed as Comp. 8): 96.0 ± 7.6% | percentage of rhodamine 123 stained cells (CoN cells [13]; compound 100 µM): 52.3 ± 8.4 % | percentage of rhodamine 123 stained cells (MCF-7 cells [14]; MCF-7, compound 50 µM): 93.3% ± 7.1% | percentage of rhodamine 123 stained cells (MCF-7 cells [14]; MCF-7, compound 50 µM, listed as Comp. 8): 93.3 ± 7.1% | percentage of rhodamine 123 stained cells (MCF-7 cells [14]; MCF-7, compound 100 µM): 72.3 ± 6.4 % | increase of caspase-3 activity (caspase-3 in CoN cells): 1.3 ± 0.2 times versus control cells | increase of caspase-3 activity (caspase-3 in PC-3 cells): 2.7 ± 0.1 times versus control cells | increase of caspase-3 activity (caspase-3 in MCF-7 cells): 2.4 ± 0.1 times versus control cells

CC1(C)CCC[C@]2(C)[C@H]3O[C@@]3(C)C(=O)C[C@@H]12 [Compound 9]
IC50 [1]: < 200 µM | IC50 at 72 h [5]: > 200 µM | IC50 [6]: 97.5 ± 10.4 µM | IC50 [7]: > 200 µM | IC50 [8]: 93.5 ± 6.7 µM

CC1(C)CCC[C@]2(C)[C@@H](CO)C(CO)=CC[C@@H]12 [Compound 7, 9β-drimendiol]
IC50 at 72 h [5]: > 200 µM | IC50 [6]: > 200 µM | IC50 [7]: > 200 µM | IC50 [8]: > 200 µM

CC1(C)CCC[C@]2(C)C3=C(CC[C@@H]12)COC3=O [Compound 5, isodrimenin]
IC50 [1]: < 200 µM | IC50 at 72 h [5]: > 200 µM | IC50 [6]: 87.6 ± 9.2 µM | IC50 [7]: > 200 µM | IC50 [8]: 90.5 ± 8.2 µM

CC1(C)CCC[C@]2(C)C3=C(CC[C@@H]12)C(=O)OC3 [Compound 4, confertifolin]
IC50 at 72 h [5]: > 200 µM | IC50 [6]: > 200 µM | IC50 [7]: > 200 µM | IC50 [8]: > 200 µM

CC1(C)CCCC2(C)C1CC(=O)C1(C)OC12 (stereo not drawn) [Compound 12, 8α,9α-epoxi-11-nordriman-7-one]
IC50 [1]: < 200 µM | morphological changes of cells (PC-3 cells [2]): severely distorted | morphological changes of cells (CoN cells [3]): severely distorted | morphological changes of cells (MCF-7 cells [4]): severely distorted | IC50 at 72 h [5]: > 200 µM | IC50 [6]: 90.2 ± 8.8 µM | IC50 [7]: 88.4 ± 7.1 µM | IC50 [8]: > 200 µM | percentage of rhodamine 123 stained cells (PC-3 cells [12]; PC-3, compound 50 µM): 139.1 ± 12.4% | percentage of rhodamine 123 stained cells (PC-3 cells [12]; PC-3, compound 100 µM): 149.3 ± 21.3% | percentage of rhodamine 123 stained cells (CoN cells [13]; compound 50 µM): 102.6 ± 9.1% | percentage of rhodamine 123 stained cells (CoN cells [13]; compound 100 µM): 124.9 ± 9.7% | percentage of rhodamine 123 stained cells (MCF-7 cells [14]; MCF-7, compound 50 µM): 111.4 ± 8.9% | percentage of rhodamine 123 stained cells (MCF-7 cells [14]; MCF-7, compound 100 µM): 111.3 ± 9.8% | increase of caspase-3 activity (caspase-3 in CoN cells): did not change | increase of caspase-3 activity (caspase-3 in PC-3 cells): did not change | increase of caspase-3 activity (caspase-3 in MCF-7 cells): did not change
